# Source: patent US20240252576A1, “Application Method of Radix Paeoniae Alba and Dendrobium Officinale for Preparing Drug for Treatment of Hypertension” (Hangzhou Danhe Pharmaceutical Co., Ltd., priority 2018, published 2024)
# How the values were obtained:
# [1] = system: hereditary hypertension rats (SHR); test: Experiment 2: hypotensive effect of the sample of the Embodiment 1 on SHR, tail arterial blood pressure; format: in vivo, rat; conditions: 15 mg/Kg body weight
# Source text: Rats: old age (over 48 weeks old) hereditary hypertension rats (SHR) and the normal controls were Wistar rats. Rat blood pressure measurement: BP-98 A type non-invasive tail arterial blood pressure measuring instrument, Softron Co., Ltd. (Japan). 1. Grouping treatment: All rats were adaptively fed for a week, measured with blood pressure and weight, and set into groups. SHR rats were grouped: sample of the Embodiment 1 (alcohol-water dual-extraction of Radix Paeoniae Alba with Dendrobium Officinale powder added)-large dosage group for the dosage of 3.5 g/kg body weight, sample of the Embodiment 1-medium dosage group for the dosage of 1.4 g/kg body weight, sample of the Embodiment 1-small dosage group for the dosage of 0.35 g/kg body weight, Dendrobium Officinale powder for the dosage of raw medicine of 0.8 g/kg body weight (which is the same as the raw medicine amount of the Dendrobium Officinale powder (0.8 g/kg body weight) contained in 1.4 g/Kg body weight of the sample of the Embodiment 1), alcohol-water dual-extraction of Radix Paeoniae Alba for the dosage of raw medicine of 0.6 g/kg body weight (which is the same as the raw medicine amount of the Radix Paeoniae Alba (0.6 g/kg body weight) contained in 1.4 g/Kg body weight of the sample of the Embodiment 1); utilizing gastric infusion; hypertension model control group receives equal amount of physiological saline; Irbesartan control group receives 15 mg/Kg body weight of Irbesartan; and normal control group receives equal amount of physiological saline. Each group has 8 rats. The treatment last for 3 weeks (multiple of 3-12 weeks of treatments are performed, the results can be repeated, and typical experimental results are reported below). 2. Blood pressure measurement: The Rats were pre-heated to 38° C. for 5-10 mins to avoid less blood flow of the tail that affects the pressure measurement. Three measurements are continuously carried out as the rat was in an awake and quiet state. The average value of the 3 measurements was considered as the blood pressure of the rat.
# [2] = system: adult sitting and lying blood pressure; conditions: adult daily dosage of 150-300 mg, cited from earlier work
# [3] = system: hereditary hypertension rats (SHR); test: Experiment 1: hypotensive effect of alcohol-water dual-extraction of Radix Paeoniae Alba on SHR, tail arterial blood pressure; format: in vivo, rat; conditions: 15 mg/Kg body weight
# Source text: Rats: old age (over 48 weeks old) hereditary hypertension rats (SHR) and the normal controls were Wistar rats. Rat blood pressure measurement: BP-98 A type non-invasive tail arterial blood pressure measuring instrument, Softron Co., Ltd. (Japan). Grouping treatment: All rats were adaptively fed for a week, measured with blood pressure and weight, and set into groups. SHR rats were divided into alcohol-water dual-extraction of Radix Paeoniae Alba large dosage group for the dosage of 3.2 g/kg body weight, alcohol-water dual-extraction of Radix Paeoniae Alba medium dosage group for the dosage of 0.8 g/kg body weight, alcohol-water dual-extraction of Radix Paeoniae Alba small dosage group for the dosage of 0.2 g/kg body weight, alcohol extraction of Radix Paeoniae Alba group for the dosage of 0.8 g/kg body weight, water extraction of Radix Paeoniae Alba group for the dosage of 0.8 g/kg body weight, Radix Paeoniae Alba powder group for the dosage of 0.8 g/kg body weight; utilizing gastric infusion; hypertension model control group receives equal amount of physiological saline; Irbesartan control group receives 15 mg/Kg body weight of Irbesartan; and normal control group receives equal amount of physiological saline. Each group has 8 rats. The treatment last for 3 weeks (multiple of 3-12 weeks of treatments are performed, the results can be repeated, and typical experimental results are reported below). Blood pressure measurement: The Rats were pre-heated to 38° C. for 5-10 mins to avoid less blood flow of the tail that affects the pressure measurement. Three measurements are continuously carried out as the rat was in an awake and quiet state. The average value of the 3 measurements was considered as the blood pressure of the rat.
# [4] = system: adult sitting and lying blood pressure; test: Clinical test data on the instructions of Irbesartan (Aprovel); format: in vivo, human; conditions: 150-300 mg daily for adults
# [5] = system: normal Wistar rat; test: Experiment 3: blood pressure effect of the sample of the Embodiment 1 on normal rats; format: in vivo; conditions: 5 mg medicine/kg body weight; for diastolic pressure / systolic pressure: normal Wistar rats
# Description: Rat: 12 Weeks Old Normal Wistar Rat.
# Rat blood pressure measurement: BP-98 A type non-invasive tail arterial blood pressure measuring instrument, Softron Co., Ltd. (Japan).
# Grouping treatment: All rats were adaptively fed for a week, measured with blood pressure and weight, and set into groups. […] Ten rats for each group, treating for 2 weeks.
# Blood pressure measurement: The Rats were pre-heated to 38° C. for 5-10 mins to avoid less blood flow of the tail that affects the pressure measurement. Three measurements are continuously carried out as the rat was in an awake and quiet state. The average value of the 3 measurements was considered as the blood pressure of the rat. The blood pressure is measured prior to the treatment and 2 hours after each administration every week.
# [6] = Treat 3 weeks, 24 hrs, 15 mg/kg
# [7] = sitting and lying blood pressure
# [8] = Treated for 1 Week, 2 hours after administration
# [9] = Treated for 2 Weeks, 2 hours after administration
# [10] = Treated for 3 Weeks, 2 hours after administration
smiles,measurement,setting,value
CCCCC1=NC2(CCCC2)C(=O)N1Cc1ccc(-c2ccccc2-c2nnn[nH]2)cc1 [Irbesartan],diastolic pressure,[1]; Before Treatment,166.7 ± 4.21 ^ mmHg
same,systolic pressure,[1]; Before Treatment,215.3 ± 5.87 ^ mmHg
same,diastolic pressure,"[1]; Treat 1 time, 2 hrs",150.1 ± 3.25 mmHg
same,systolic pressure,"[1]; Treat 1 time, 2 hrs",182.4 ± 3.89 mmHg
same,diastolic pressure,"[1]; Treat 1 time, 24 hrs",156.6 ± 3.57^Δ mmHg
same,systolic pressure,"[1]; Treat 1 time, 24 hrs",198.7 ± 3.61 mmHg
same,diastolic pressure,"[1]; Treat 1 week, 2 hrs",149.7 ± 2.36 mmHg
same,systolic pressure,"[1]; Treat 1 week, 2 hrs",181.2 ± 3.34 mmHg
same,diastolic pressure,"[1]; Treat 1 week, 24 hrs",155.3 ± 2.36 mmHg
same,systolic pressure,"[1]; Treat 1 week, 24 hrs",197.8 ± 2.87 mmHg
same,diastolic pressure,"[1]; Treat 2 weeks, 2 hrs",147.4 ± 3.46 mmHg
same,systolic pressure,"[1]; Treat 2 weeks, 2 hrs",177.5 ± 2.23 mmHg
same,diastolic pressure,"[1]; Treat 2 weeks, 24 hrs",156.2 ± 3.25 mmHg
same,systolic pressure,"[1]; Treat 2 weeks, 24 hrs",199.9 ± 2.36 mmHg
same,diastolic pressure,"[1]; Treat 3 weeks, 2 hrs, 15 mg/kg",149.5±3.24 mmHg
same,systolic pressure,"[1]; Treat 3 weeks, 2 hrs, 15 mg/kg",178.9±3.87 mmHg
same,diastolic pressure,[1]; [6],154.1±2.08 mmHg
same,systolic pressure,[1]; [6],198.7±2.24 mmHg
same,ratio of the hypotensive valley and peak,[2],60-80%
same,"average hypotensive valley value, diastolic",[2]; [7],5-8 mmHg
same,"average hypotensive valley value, systolic",[2]; [7],8-13 mmHg
same,diastolic pressure,[3]; Before Treatment,166.7 ± 4.21 ^ mmHg
same,systolic pressure,[3]; Before Treatment,215.2 ± 4.45 ^ mmHg
same,diastolic pressure,[3]; First Treated,155.2 ± 3.25 mmHg
same,systolic pressure,[3]; First Treated,181.6 ± 3.12 mmHg
same,diastolic pressure,[3]; [8],150.8 ± 2.89 mmHg
same,systolic pressure,[3]; [8],180.4 ± 3.56 mmHg
same,diastolic pressure,[3]; [9],151.8 ± 2.71 mmHg
same,systolic pressure,[3]; [9],178.6 ± 2.04 mmHg
same,diastolic pressure,[3]; [10],152.9 ± 2.89 mmHg
same,systolic pressure,[3]; [10],177.8 ± 2.12 mmHg
same,"hypotensive extent in the hypotensive peak, diastolic pressure",[4]; calculated from intermediate values 6.5 mmHg/0.7,9.29 mmHg
same,"hypotensive extent in the hypotensive peak, systolic pressure",[4]; calculated from intermediate values 10.5 mmHg/0.7,15.00 mmHg
"CCOC(=O)C1=C(COCCN)NC(C)=C(C(=O)OC)C1c1ccccc1Cl (stereo not shown) [Norvasc, amlodipine besylate]",hypotensive effect to the normal blood pressure rats,[5],triggered relatively great hypotensive effect
same,diastolic pressure,[5]; Before Treatment,99.2 ± 4.87 mmHg
same,systolic pressure,[5]; Before Treatment,137.6 ± 5.46 mmHg
same,diastolic pressure,[5]; [8],71.8 ± 3.76 mmHg
same,systolic pressure,[5]; [8],95.7 ± 4.69 mmHg
same,diastolic pressure,[5]; [9],74.5±2.76 mmHg
same,systolic pressure,[5]; [9],99.2±5.75 mmHg
